Values of other authors in patent publication US20190151045A1, “Device and Methods for Disinfecting Dental Lines” (Toppen Medical Dental LLC, priority 2017, published 2019).
Like-named read-outs stand apart in the source and are kept apart here.

Conditions: dissipates into molecular oxygen, 0.5 mg/L ozone in dental water line

In the case of `O=[O+][O-]` [ozone], the “half-life (t1/2) of ozone” value is given as roughly 20 min and the “half-life (t1/2) of ozone” value (listed as Ozone) is given as “about 20 min”.
